In patent US10875891B2, “Short synthetic peptide and uses thereof” (MacKay Memorial Hospital, priority 2018, dated 2020):
Entries after “also recorded” stand apart in the source; their conditions may differ. Where no end group is shown, it is not given here.

Experiments:
RPMI8226 cells [1] = experiment: Trypan blue exclusion assay; type: cell-based, human; details: vs solvent (DMSO) 7.5±1.3, FIG. 5
Procedure: (§1) The multiple myeloma line RPMI8226 or rat Raw264.7 macrophages were cultivated in complex medium (RPMI1640) supplemented with 10% (vol/vol) heat-inactivated fetal calf serum (Invitrogen), 50 μg/mL penicillin, 50 μg/mL streptomycin, and 2 mM L-glutamine at 37° C. in a 5% CO2 atmosphere RPMI8226 cells or U266 cells were cultured in serum-free RPMI1640 medium for 24 h, and then cells seeded in 48-well culture plates (3×10^5 cells/well) and cultured in 0.5 ml fresh serum-free RPMI1640 medium containing 20 μM peptide for further 24 h. The cell viability was determined by the MTT assay. The cells were examined under a microscope with the aid of a hemacytometer, in which 0.1 mL of trypan blue stock solution (0.4% solution of trypan blue in isotonic salt buffer solution, pH 7.2) was added to 1 mL cell suspension, and loaded therein. The number of blue staining cells (considered non-viable) and the number of total cells were respectively counted. Cell viability should be at least 95% for healthy log-phase cultures.

U266 cells = experiment: Trypan blue exclusion assay; type: cell-based, human; details: vs solvent (DMSO) 8.7±1.1, FIG. 5
Procedure: as §1, with “RPMI8226” for “The multiple myeloma line RPMI8226 or rat Raw264.7 macrophages were cultivated in complex medium (RPMI1640) supplemented with 10% (vol/vol) heat-inactivated fetal calf serum (Invitrogen), 50 μg/mL penicillin, 50 μg/mL streptomycin, and 2 mM L-glutamine at 37° C. in a 5% CO2 atmosphere RPMI8226”

[2] = test system: Murine psoriasis vulgaris-like skin inflammation model; experiment: IMQ-induced psoriasis vulgaris-like skin inflammation model, skin appearance; type: in vivo, BALB/c mice; details: 25 μM with IMQ cream, topical daily, six consecutive days; FIG. 7
Procedure: (§2) BALB/c mice (8-weeks old females; n=42) were used in this model system. […] Accordingly, in this model, each BALB/c mice received a daily topical dose (62.5 mg) of commercially available IMQ cream (Imiquimod Cream 5% w/w, Aldara™) on the shaved back and the right ear for 6 consecutive days (n=6); whereas the control mice (normal group) were treated with a control cream (n=6). For treatment, each test peptide was mixed with IMQ cream to give a concentration of 25 μM (n=6 per group). Keratinocyte proliferation was determined by BrdU incorporation. BrdU (Sigma-Aldrich) was reconstituted in DMSO as a stock solution of 80 mM. 10 μl of BrdU mixed with 90 μl of PBS was intraperitoneally injected into each mouse for 24 hr prior to euthanasia.

Murine dry eye model [3] = experiment: Dry eye animal model, fluorescein eye stain test for corneal injuries; type: in vivo, C57BL/6 mice; details: peptide 50 μM topically three times a day for 4 days
Procedure: (§3) C57BL/6 mice (7-8 weeks old, each weighted about 18 to 25 g) were used in this model system. All mice were maintained in the animal facility in accordance with the procedures approved by Mackay Memorial Hospital Review Board (Taiwan, R.O. C.). All animal experimental procedures were conducted according to the ARVO Statement for the Use of Animals in Ophthalmic and Vision Research.
(§4) Dry eyes were induced by placing mice in a controlled environment chamber (CEC) for 14 days in accordance with procedures previously described by Barabino et al (IVOS (2005) 46(8), 2766-2771). Mice placed in the CEC were exposed to a condition, in which relative humidity (RH) was maintained at <25%, temperature at 20-22° C., and airflow at about 15 L/min, for 12 hours per day. Control mice were kept in a normal environment (RH>50%, no air flow, temperature of 20-22° C.) for the same duration.
(§5) A common artificial tear formulation, 1% carboxymethylcelllulose (CMC) dissolved in balanced salt solution (BSS) was used as the peptide vehicle. Peptide (50 μM) or 1% CMC vehicle was topically administered to eyes three times a day, for 4 days.
Corneal epithelial injury was determined by staining with topical fluorescein (100 mg/ml or 10%; FLUORESCITE™, Alcon Laboratories). For dosing, topical fluorescein (0.6 μL of 0.5% sodium fluorescein dissolved in 4.4 μL BSS per eye) was applied via a micro-pipette to the lateral canthus for 15 sec. Corneal fluorescein staining was examined with a slit-lamp biomicroscope under cobalt blue light and photographed with a digital camera. Data is presented as mean±SD. Dye staining of the cornea was scored in a blinded manner as follows: score 0 for no punctuate staining; score 1 when less than one third of the cornea was stained; score 2 when two thirds or less was stained; and score 3 when more than two thirds was stained.

RPMI8226 cells [4] = experiment: Annexin V/propidium iodide apoptosis by flow cytometry; type: cell-based, human; details: treatment for 24 hr; control untreated cells less than 15%; FIG. 6
Procedure: Annexin V/propidium iodide (PI) staining was performed using flow cytometry according to the manufacturer's guidelines (Annexin V-FITC Apoptosis Detection kit; Roche). Briefly, 0.5×10^6 cells were washed in ice-cold PBS without Ca^2+ or Mg^2+ (Life Technologies). The cells were then re-suspended in 100 μl of binding buffer and incubated with 5.0 μl of PI and 2.0 μl of annexin V-fluorescein isothiocynate for 15 min in the dark at room temperature. Flow cytometric analysis was immediately performed using a FACScalibur Instrument (Becton Dickinson).

myeloma RPMI 8226 cell = experiment: MTT assay, cell viability; type: cell-based, human; details: 20 μM peptide, 24 h, serum-free RPMI1640; FIGS. 1-2
Procedure: The multiple myeloma line RPMI8226 or […] Raw264.7 macrophages were cultivated in complex medium (RPMI1640) supplemented with 10% (vol/vol) heat-inactivated fetal calf serum (Invitrogen), 50 μg/mL penicillin, 50 μg/mL streptomycin, and 2 mM L-glutamine at 37° C. in a 5% CO2 atmosphere
RPMI8226 cells or U266 cells were cultured in serum-free RPMI1640 medium for 24 h, and then cells seeded in 48-well culture plates (3×10^5 cells/well) and cultured in 0.5 ml fresh serum-free RPMI1640 medium containing 20 μM peptide for further 24 h. The cell viability was determined by the MTT assay.
50 μL of the MTT stock solution (5 mg MTT dissolved in 1 ml of sterile PBS) was added to each well, and 50 μL of the MTT stock solution was added to 500 μL of medium alone and used as a negative control. Each sample was Incubates at 37° C. for 4 hours. Aliquots (450 μl) from each sample were taken to a new well of 48-well culture plate, adding 100 μL DMSO, mixing thoroughly using the pipette and reacted at 37° C. for 20 min and absorbance was measured at 570 nm.

[5] = test system: Murine psoriasis vulgaris-like skin inflammation model; experiment: IMQ-induced psoriasis vulgaris-like skin inflammation model, H&E histology of back skin; type: in vivo, BALB/c mice
Procedure: as §2
Back skin of the mouse was fixed overnight in 4% paraformaldehyde, dehydrated with graded ethanol series, and paraffinized. Fixed samples were deparaffinized in xylene and rehydrated in a graded series of ethanol. Tissues were sliced into 5-μm sections. General histology was performed using hematoxylin and eosin (H&E) (Merck, Rayway, N.J., USA).
(§6) Slides were blocked with 10% goat serum for 60 min and then incubated with primary antibody against BrdU (1:50 dilution; GTX42641) for 3 hr at RT. The slides were then incubated with peroxidase-labeled donkey immunoglobulin for 30 min and then incubated with chromogen substrate (3,3′-diaminobenzidine) for 2 min before counterstaining with hematoxylin. Quantification was estimated based on high quality images (1208×960 pixels buffer) captured using a Nikon Eclipse 80i light microscope.

[6] = test system: Murine psoriasis vulgaris-like skin inflammation model; experiment: IMQ-induced psoriasis vulgaris-like skin inflammation model, keratinocyte proliferation by BrdU incorporation; type: in vivo, BALB/c mice
Procedure: as §2, §6

Murine dry eye model [7] = experiment: Dry eye animal model, tear production by phenol red thread test; type: in vivo, C57BL/6 mice; details: treated for 4 days; P<0.01 versus vehicle treatment; FIG. 4
Procedure: as §3, §4, §5
Tear production was measured with phenol red-impregnated cotton threads (Zone-Quick; Oasis, Glendora, Calif.). The validity of this test in mice was performed as previously described (Dursun et al., Invest Ophthalmol Vis Sci. 2002; 43:632-8). The threads were held with jeweler forceps and placed in the lateral canthus for 60 seconds. The tear production expressed in millimeters of thread wet by the tear and turned red.

In the case of “NH2-Asp-Ile-Thr-Tyr-Val-Arg-Leu-Lys-Phe-COOH (DITYVRLKF; not fully specified (N-terminus, C-terminus); printed as NH2-Asp-Ile-Thr-Tyr-Val-Arg-Leu-Lys-Phe-COOH) [9-mer, short synthetic peptide …]”, the “cell viability by trypan blue assay” value (RPMI8226 cells [1]) is reported as 59.7±4.5, the “cell viability by trypan blue assay” value (U266 cells) is reported as 47.0±4.6 and the “skin inflammation and desquamation” value [2] is reported as “reduced level of dosal skin inflammation and desquamation”. For the same substance, the “reduction in mean corneal fluorescein staining score compared with vehicle treated control mice” value (Murine dry eye model [3]; FIG. 3 panel B) was “about 3 fold”, the “corneal fluorescein stain (corneal damage), result in words” value (Murine dry eye model [3]; vs vehicle) was “reduced significantly” and the “myeloma cells exhibiting apoptotic phosphatidylserine exposure (annexin-V staining)” value (RPMI8226 cells [4]) was “approximately 54%”. For the same substance, the “myeloma RPMI 8226 cell viability (MTT assay)” value (myeloma RPMI 8226 cell) was “successfully suppressed myeloma RPMI 8226 cell viability; also recorded: effective in suppressing myeloma cell viability”, the “acanthosis, quantified epidermal thickness” value ([5]; 25 μM with IMQ cream, 6 days, IMQ control 122±10.5, FIG. 8 panel B) was 39.2±2.7 μm and the “acanthosis and desquamation in skin sections (H&E staining), result in words” value ([5]; vs IMQ-treated skin sections, FIG. 8 panel A) was “decrease in acanthosis and less desquamation”. The “hyperproliferation of keratinocytes, BrdU-positive cells in the epidermis (labeling index)” value ([6]; 25 μM with IMQ cream, day 6, IMQ control 24.5±2.0, FIG. 9 panel B) was 8.3±1.4%, the “location of BrdU-positive cells in the epidermis” value ([6]; day 6 after IMQ treatment, FIG. 9 panel A) was “restrict to the basal layer of the epidermis” and the “tear volume (tear production)” value (Murine dry eye model [7]) was “significantly increased”.
